# Tested on: microbes (bacteria and fungi)
# Assay: USP 51, Antimicrobial Effectiveness Test
# Assay type: cell-based
# Details: combined with 12.5 ppm colloidal silver; aqueous solution containing seaweed extract
smiles,measurement,value
"CS(C)(=O)=O [MSM, methylsulfonylmethane]",sufficient concentration of MSM for effective cosmetic preservation per USP 51,10 % (w/w)

# Source: patent US20210161147A1, “BROAD SPECTRUM COSMETIC PRESERVATIVE SYSTEM” (priority 2019, published 2021)
